Experimental findings from paper PMC9814781, “Structure-based design of a dual-warhead covalent inhibitor of FGFR4” (Communications Chemistry, 2022) are described below.

The target in series [1] is CDK3/CycE1 (Homo sapiens, UniProt Q00526). Put plainly: Kinase selectivity profiling.
Series [2] concerns the target FLT4 (VEGFR3) (Homo sapiens, UniProt P35916). Put plainly: Kinase selectivity profiling.
The target in series [3] is FGR (Homo sapiens, UniProt P09769). The series can be described thus: Kinase selectivity profiling.
In series [4] the target is HIPK2 (Homo sapiens, UniProt Q9H2X6). Put plainly: Kinase selectivity profiling.
HIPK2, sequence (Q9H2X6 whole entry): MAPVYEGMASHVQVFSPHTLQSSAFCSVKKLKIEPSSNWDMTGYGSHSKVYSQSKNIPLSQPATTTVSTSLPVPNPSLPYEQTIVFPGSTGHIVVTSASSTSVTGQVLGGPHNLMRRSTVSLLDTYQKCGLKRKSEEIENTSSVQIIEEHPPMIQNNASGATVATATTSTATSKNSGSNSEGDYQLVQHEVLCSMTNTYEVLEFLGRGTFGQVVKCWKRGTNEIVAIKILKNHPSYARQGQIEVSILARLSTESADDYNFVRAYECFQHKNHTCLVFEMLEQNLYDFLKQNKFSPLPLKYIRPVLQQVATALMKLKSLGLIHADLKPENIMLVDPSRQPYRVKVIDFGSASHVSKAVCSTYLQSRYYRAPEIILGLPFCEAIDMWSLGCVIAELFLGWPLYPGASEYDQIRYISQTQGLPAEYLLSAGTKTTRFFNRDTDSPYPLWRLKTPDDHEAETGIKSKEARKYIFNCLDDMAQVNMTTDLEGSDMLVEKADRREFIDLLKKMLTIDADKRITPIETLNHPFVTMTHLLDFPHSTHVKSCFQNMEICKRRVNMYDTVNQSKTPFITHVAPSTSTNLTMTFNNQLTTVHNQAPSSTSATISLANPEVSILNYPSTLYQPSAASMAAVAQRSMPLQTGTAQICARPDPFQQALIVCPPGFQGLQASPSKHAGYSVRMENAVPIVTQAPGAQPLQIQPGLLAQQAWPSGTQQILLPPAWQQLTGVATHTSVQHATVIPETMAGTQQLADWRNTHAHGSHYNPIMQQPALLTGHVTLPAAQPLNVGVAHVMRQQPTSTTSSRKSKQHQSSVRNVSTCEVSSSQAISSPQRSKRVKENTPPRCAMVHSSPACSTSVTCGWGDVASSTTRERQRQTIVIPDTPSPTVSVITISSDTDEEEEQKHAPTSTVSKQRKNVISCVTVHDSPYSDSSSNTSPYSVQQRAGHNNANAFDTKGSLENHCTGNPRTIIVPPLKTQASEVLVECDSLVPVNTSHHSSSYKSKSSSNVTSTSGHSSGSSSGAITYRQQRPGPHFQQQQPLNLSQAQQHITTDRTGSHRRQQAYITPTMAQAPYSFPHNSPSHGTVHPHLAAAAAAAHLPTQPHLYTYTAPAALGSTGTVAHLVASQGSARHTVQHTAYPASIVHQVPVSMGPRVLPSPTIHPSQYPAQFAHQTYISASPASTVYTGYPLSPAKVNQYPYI
For series [5], the system named is parental Ba/F3 cells. Put plainly: Ba/F3 cell viability assay. In kind it is cell-based. The settings on record: Mus musculus, BaF3, 72 h, CCK-8.
Series [6] deals with EPHA6 (Homo sapiens, UniProt Q9UF33). Put plainly: Kinase selectivity profiling.
The target in series [7] is EPHA8 (Homo sapiens, UniProt P29322). The series can be described thus: Kinase selectivity profiling.
EPHA8, sequence (P29322 28-1005): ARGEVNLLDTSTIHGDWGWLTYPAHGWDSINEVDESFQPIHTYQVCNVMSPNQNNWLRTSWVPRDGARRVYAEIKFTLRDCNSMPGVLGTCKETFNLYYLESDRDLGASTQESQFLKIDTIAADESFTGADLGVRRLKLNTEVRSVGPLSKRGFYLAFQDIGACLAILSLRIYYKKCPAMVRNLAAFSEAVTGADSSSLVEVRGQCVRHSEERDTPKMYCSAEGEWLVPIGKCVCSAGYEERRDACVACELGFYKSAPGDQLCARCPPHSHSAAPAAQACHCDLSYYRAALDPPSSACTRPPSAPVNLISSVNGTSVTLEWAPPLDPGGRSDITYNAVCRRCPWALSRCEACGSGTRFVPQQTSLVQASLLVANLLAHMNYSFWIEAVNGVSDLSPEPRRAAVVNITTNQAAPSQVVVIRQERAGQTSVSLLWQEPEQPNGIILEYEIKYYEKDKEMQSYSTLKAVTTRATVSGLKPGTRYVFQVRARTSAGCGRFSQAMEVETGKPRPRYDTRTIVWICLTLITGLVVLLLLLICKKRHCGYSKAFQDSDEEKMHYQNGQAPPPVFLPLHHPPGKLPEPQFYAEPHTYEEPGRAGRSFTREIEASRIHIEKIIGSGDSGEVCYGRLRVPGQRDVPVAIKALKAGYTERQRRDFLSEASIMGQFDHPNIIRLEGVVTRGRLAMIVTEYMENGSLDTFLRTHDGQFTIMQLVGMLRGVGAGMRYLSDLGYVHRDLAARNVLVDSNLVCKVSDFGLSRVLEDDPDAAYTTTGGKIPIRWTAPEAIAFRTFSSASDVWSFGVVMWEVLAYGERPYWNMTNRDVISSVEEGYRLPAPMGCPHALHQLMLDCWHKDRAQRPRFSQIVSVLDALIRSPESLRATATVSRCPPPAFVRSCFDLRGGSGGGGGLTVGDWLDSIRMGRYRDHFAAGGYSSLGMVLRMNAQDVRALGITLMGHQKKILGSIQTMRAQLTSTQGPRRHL
The target in series [8] is PKD2 (Homo sapiens, UniProt Q9BZL6). Put plainly: Kinase selectivity profiling.
Series [9] has as its target EPHA1 (Homo sapiens, UniProt P21709). The series can be described thus: Kinase selectivity profiling.
Series [10] has as its target AKT2 (Homo sapiens, UniProt P31751). Put plainly: Kinase selectivity profiling.
Series [11] in a line: GSH reaction assay. In kind it is in vitro ADME. The settings on record: GSH 5 mM, inhibitor 1 mM, 37°C, 10–60 min. The protocol:
GSH (5 mM) and inhibitor (1 mM) or DMSO control were mixed in equal volumes and reacted at 37°C for 10 min, 20 min, 30 min, 40 min, 50 min, and 60 min. The remaining GSH was detected with DTNB (Beyotime, China), and the absorption light was measured at 412 nm on a plate reader (Perkin-Elmer). Data were determined using the time (min) versus % of control in Origin 2018 software.

Series [12] concerns the target BRSK2 (Homo sapiens, UniProt Q8IWQ3). Put plainly: Kinase selectivity profiling.
In series [13] the target is HIPK4 (Homo sapiens, UniProt Q8NE63). Put plainly: Kinase selectivity profiling.
HIPK4, sequence (Q8NE63 whole entry): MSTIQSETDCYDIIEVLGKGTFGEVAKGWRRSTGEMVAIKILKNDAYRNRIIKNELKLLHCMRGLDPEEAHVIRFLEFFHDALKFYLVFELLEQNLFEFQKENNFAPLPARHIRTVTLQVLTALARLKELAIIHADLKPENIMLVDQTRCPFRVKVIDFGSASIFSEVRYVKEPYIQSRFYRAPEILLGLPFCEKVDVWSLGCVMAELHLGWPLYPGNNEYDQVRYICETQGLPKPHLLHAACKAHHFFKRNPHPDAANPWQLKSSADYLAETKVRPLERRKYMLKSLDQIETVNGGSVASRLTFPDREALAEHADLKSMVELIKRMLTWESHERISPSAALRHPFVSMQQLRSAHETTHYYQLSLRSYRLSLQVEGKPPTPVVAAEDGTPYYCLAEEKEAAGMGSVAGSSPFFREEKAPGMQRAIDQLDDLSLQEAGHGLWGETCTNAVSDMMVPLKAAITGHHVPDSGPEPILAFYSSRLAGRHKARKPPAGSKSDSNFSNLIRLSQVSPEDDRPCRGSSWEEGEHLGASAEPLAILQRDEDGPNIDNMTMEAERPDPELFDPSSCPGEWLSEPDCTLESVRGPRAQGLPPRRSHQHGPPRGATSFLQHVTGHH
The target in series [14] is ITK (Homo sapiens, UniProt Q08881). Put plainly: Kinase selectivity profiling.
For series [15], the target named is FER (Homo sapiens, UniProt P16591). The series can be described thus: Kinase selectivity profiling.
Series [16] addresses BMX (Homo sapiens, UniProt P51813). Put plainly: Kinase selectivity profiling.
Series [17] deals with MAP3K3 (Homo sapiens, UniProt Q99759). Put plainly: Kinase selectivity profiling.
In series [18] the target is PYK2 (Homo sapiens, UniProt Q14289). Put plainly: Kinase selectivity profiling.
Series [19] deals with NEK2 (Homo sapiens, UniProt P51955). The series can be described thus: Kinase selectivity profiling.
In series [20] the test system is Hep3B. Put plainly: Hep3B viability assay. The conditions noted are these: Homo sapiens, FGF19-overexpressing HCC cell line, 72 h, CCK-8. In kind it is cell-based. On the procedure:
Hep3B (ThermoFisher Scientific, 11965, America) and Huh7 (ThermoFisher Scientific, 11095, America) cells were seeded into 96-well plates at 4000 cells/well and 2000 cells/well, respectively. […] Cell viabilities were measured by a CCK-8 kit (Vazyme, China). The IC50 values were calculated using GraphPad Prism software.

Series [21] addresses KIT (Homo sapiens, UniProt P10721). The series can be described thus: Kinase selectivity profiling.
Series [22] has as its target TYK2 (Homo sapiens, UniProt P29597). Put plainly: Kinase selectivity profiling.
In series [23] the target is FGFR1 (Homo sapiens, UniProt P11362). The series can be described thus: Kinase inhibition assay (ADP-Glo). In kind it is biochemical. Also on record: human FGFR1 (residues 456–765); 6xHis + PreScission site (N, cleaved yes); made in house; host or cells: Escherichia coli Rosseta. On the procedure:
Wild-type FGFRs and mutant FGFRs were prepared as previously described[25]–[27]. In brief, the kinase domains of human FGFR1 (residues 456–765), FGFR2 (residues 453–770), FGFR3 (residues 450–758), and FGFR4 (residues 445–753) were cloned into a modified pET28a expression vector and then transfected into Escherichia coli Rosseta cells. The N-terminal of the recombinant proteins were contained a 6xHis tag followed by a PreScission cleavage site for FGFR1, FGFR2, FGFR3, and FGFR4. Site-directed mutagenesis of FGFR4 was generated according to the ClonExpress II One Step Cloning Kit (Vazyme) using the pET28a-FGFR4 plasmid as the template. These mutants were confirmed by DNA sequencing (Tsingke, Changsha, China). For crystallization experiments, the wild-type FGFR4 plasmid was co-expressed with untagged YOPH to obtain non-phosphorylated proteins. The proteins were first purified by Ni-NTA affinity chromatography. […]
All kinase inhibition assays were performed with optimized kinase assay buffer consisting of 40 mM Tris-HCl pH 7.5, 20 mM MgCl2, 20 mM NaCl, 0.1 mg/mL BSA, 1 mM TCEP, and 4% DMSO. […] Fluorescence was measured on a multimode plate reader (Perkin-Elmer) using a chemiluminescence program after the addition of the detection reagent. IC50 values were determined using a three-parameter log [Inhibitor] versus response model in GraphPad Prism software.

Series [24] deals with PLK1 (Homo sapiens, UniProt P53350). The series can be described thus: Kinase selectivity profiling.

Usually inhibition stands for the change of the read-out against control, counted positive when it falls. The term IC50 denotes the concentration at which inhibition is half-maximal.

BRSK2, sequence (Q8IWQ3 whole entry): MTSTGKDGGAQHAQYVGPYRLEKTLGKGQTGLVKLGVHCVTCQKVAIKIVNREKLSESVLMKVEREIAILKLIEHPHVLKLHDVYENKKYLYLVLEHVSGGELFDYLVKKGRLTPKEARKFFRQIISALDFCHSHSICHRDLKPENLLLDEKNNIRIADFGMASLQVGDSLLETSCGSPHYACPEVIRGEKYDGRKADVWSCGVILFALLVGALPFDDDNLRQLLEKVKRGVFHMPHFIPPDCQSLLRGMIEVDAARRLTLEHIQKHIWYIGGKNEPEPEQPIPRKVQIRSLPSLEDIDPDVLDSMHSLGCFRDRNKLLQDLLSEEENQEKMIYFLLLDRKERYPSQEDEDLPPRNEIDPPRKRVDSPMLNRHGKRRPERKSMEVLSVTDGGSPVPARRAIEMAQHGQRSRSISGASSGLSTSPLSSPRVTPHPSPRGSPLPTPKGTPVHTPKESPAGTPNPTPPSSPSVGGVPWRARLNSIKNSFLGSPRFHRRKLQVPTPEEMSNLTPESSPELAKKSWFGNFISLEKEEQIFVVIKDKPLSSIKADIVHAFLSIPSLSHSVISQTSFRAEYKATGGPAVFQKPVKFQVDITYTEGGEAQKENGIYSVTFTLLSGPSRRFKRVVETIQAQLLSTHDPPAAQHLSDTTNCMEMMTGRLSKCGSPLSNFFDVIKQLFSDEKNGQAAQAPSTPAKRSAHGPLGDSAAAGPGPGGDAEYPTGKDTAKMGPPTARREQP
EPHA1, sequence (P21709 26-976): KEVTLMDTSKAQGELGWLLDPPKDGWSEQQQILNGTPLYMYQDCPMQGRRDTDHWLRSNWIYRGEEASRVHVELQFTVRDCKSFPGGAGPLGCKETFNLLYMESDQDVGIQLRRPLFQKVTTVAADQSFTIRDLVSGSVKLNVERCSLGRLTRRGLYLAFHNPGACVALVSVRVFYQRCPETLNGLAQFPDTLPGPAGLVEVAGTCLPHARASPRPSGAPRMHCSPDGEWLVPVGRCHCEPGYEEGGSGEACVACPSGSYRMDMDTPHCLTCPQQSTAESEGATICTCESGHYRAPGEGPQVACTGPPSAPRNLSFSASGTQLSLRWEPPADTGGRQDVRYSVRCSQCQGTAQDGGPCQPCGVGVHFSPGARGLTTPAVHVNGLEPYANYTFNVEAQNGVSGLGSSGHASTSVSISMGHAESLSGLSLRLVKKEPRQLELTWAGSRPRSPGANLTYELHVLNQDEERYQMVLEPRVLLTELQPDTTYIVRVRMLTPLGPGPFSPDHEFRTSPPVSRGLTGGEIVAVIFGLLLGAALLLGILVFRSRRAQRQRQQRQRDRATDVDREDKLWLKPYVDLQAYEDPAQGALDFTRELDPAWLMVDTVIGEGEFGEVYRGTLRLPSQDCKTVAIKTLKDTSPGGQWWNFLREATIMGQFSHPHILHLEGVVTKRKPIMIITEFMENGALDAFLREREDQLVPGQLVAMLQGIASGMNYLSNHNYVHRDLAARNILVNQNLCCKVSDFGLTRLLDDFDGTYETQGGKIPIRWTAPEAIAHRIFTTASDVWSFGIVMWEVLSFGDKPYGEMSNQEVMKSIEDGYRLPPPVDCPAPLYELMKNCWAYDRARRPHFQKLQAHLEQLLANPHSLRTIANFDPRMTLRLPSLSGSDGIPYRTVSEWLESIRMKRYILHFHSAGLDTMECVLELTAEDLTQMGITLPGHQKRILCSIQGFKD
AKT2, sequence (P31751 whole entry): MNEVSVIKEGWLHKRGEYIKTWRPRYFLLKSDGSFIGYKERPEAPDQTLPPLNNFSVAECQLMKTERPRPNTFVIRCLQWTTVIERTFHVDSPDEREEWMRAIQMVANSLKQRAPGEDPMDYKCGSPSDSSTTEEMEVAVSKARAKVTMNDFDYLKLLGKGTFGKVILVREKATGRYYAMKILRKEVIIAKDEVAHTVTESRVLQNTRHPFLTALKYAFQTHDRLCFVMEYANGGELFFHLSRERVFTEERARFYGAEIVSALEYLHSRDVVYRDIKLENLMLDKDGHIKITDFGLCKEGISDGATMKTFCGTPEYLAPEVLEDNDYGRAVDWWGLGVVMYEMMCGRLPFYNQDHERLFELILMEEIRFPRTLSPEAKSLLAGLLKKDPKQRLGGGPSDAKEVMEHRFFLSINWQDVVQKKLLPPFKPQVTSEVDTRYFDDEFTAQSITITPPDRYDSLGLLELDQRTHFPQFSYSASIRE

Turning to `C=CC(=O)Nc1ccccc1Nc1ncc2c(n1)N(CCCN1CCN(C(=O)C=C)CC1)C(=O)N(c1cc(OC)cc(OC)c1)C2` [CXF-009], the inhibition at 1 µM in series [1] is -7.17%; in [2], 0.74%; in [3], -1.1%; in [4], -5.04%; in series [6] it was 5.28%; in series [7], -0.52%. Moreover, the inhibition at 1 µM is 0.08% in series [8]; 2.15% in series [9]; 3.35% in series [10]; -5.03% in [12]; 2.32% in series [13]; 4.35% in [14]. The inhibition at 1 µM in series [15] was 37.1%; in [16] it was 10.5%; in series [17], -1.62%; in [18] it was 2.11%; in [19] it was 17.9%; in series [21], -14.3%. The inhibition at 1 µM in [22] is -5.05%; in series [24], 0.59%. The 50% inhibitory concentration (IC50) was greater than 5 µM in series [5], 0.895 µM in [20] and 2.58 µM in series [23]. Further, the “GSH reactivity (remaining GSH, DTNB)” value in [11] was “slightly more reactive to GSH than PRN1371”.
